Reference: US4661516A, “Diaminocyclohexane platinum complexes” (Research Corporation, priority 1984, dated 1987)
Several values for one entry are separate records, joined by “and”; a condition that tells them apart may be missing. Equal values may be shown once. Read-outs that look alike come from different tables or passages of the source.

Tests used:
[1] = tested on: Wild type L1210 leukemic cells; assay: In vitro cytotoxicity, wild type L1210 leukemic cells (L1210/0); format: cell-based; settings: for ID50: L1210, 72 hours incubation; for ID50 L1210/0: 4320 min
Description: Four ml of cell suspension (10^5 cells/ml) are added to culture tubes and the appropriate concentration (0.01, 0.1, 1 or 10 μg/ml final concentration) of drug added to the culture tubes. After 72 hours of incubation, the cell concentration of control and experimental cultures are determined with the aid of a Coulter Counter® Model ZBf and the percent inhibition calculated. […]

[2] = tested on: Male albino mice; assay: Acute toxicity, single intraperitoneal injection (Example 19); format: in vivo; settings: single i.p.; for Calculated LD10 / Calculated LD50 / Calculated LD90: 14 days
Description: Fourteen days after treatment all surviving mice were sacrified and the LD10, LD50 and LD90 were calculated.

[3] = tested on: L1210/PDD; format: in vivo, BDF1 mice; settings: days 1,5,9
Description: (§1) The anti-tumor activity of compound number 3 was evaluated against cells sensitive to (L1210/0) and resistant to (L1210/PDD) the standard platinum complex cis-diamminedichloroplatinum(II).

[4] = tested on: L1210 cells; assay: In vivo anti-tumor activity, L1210, single i.p. injection; design: species or system BDF1 mice; settings: for Maximal Effective Dose: single i.p. injection
Description: About 24 hours after inoculation of the cells, the mice were injected intraperitoneally with varying dosages of complexes of the present invention. […] Long term survival signifies that animals were alive 60 days after inoculation with L1210 cells.

[5] = tested on: L1210/0 leukemia cells; assay: In vivo anti-tumor activity, L1210 (L1210/0), multiple i.p. doses; design: species or system BDF1 mice; settings: for Maximal Effective Dose: i.p. on days 1, 5 and 9; for LTS: survivors/treated 50 days after treatment
Description: BDF1 mice were inoculated intraperitoneally with 10^6 L1210 cells. About 24 hours after inoculation of the cells, the mice were injected intraperitoneally with varying dosages of complexes of the present invention. Six mice were used for each dosage level in each experiment with an equal number of control mice inoculated with 10^6 L1210 cells and left untreated with a given complex. The results [%T/C=(survival time of treated animals/survival time of control animals)×100] are set forth below. Long term survival signifies that animals were alive 60 days after inoculation with L1210 cells.
The procedure of Example 16 was repeated except that the treated animals were injected with multiple doses of the complex as indicated below:
as §1
The following complexes were tested in vivo oncolytic activity following 3 i.p. injections (days 1, 5, 9) according to the protocol described in Examples 16 and 17.
BDF1 mice were innoculated intraperitoreally with 10^6 L1210 leukemia cells and treatment was begun on the next day (day 1). Two treatment schedules, i.e. single i.p. injection of the drug and i.p. injections on days 1, 5 and 9 according to the protocol described in Examples 16 and 17 were used.

[6] = tested on: L1210 leukemia cells (L1210/PDD); assay: In vitro cytotoxicity / cross-resistance, L1210/PDD (L1210/DDP) cells resistant to cisdiamminedichloroplatinum(II); format: cell-based; settings: for ID50 L1210/DDP: Tables VII and VIII, 5760 min; for ID50 L1210/PDD: 96 hours
Description: Four ml of cell suspension were added to culture tubes and the appropriate concentration (0.01, 0.1, 1 or 10 μg/ml final drug concentration) was added. After 96 hours the cell concentration of control and experimental cultures were calculated with the aid of a Coulter Counter® Model ZBf and the percent inhibition calculated.

[7] = BUN (RUN [sic]) with the acute lethality data (Table XIII); format: in vivo; settings: mean + 1 S.D.
[8] = Acute lethality, single intraperitoneal injection (Table XIII); format: in vivo
[9] = tested on: B16 cells; assay: Melanotic melanoma test, i.p. inoculated B16 melanoma; format: in vivo, BDF1 mice; settings: for Maximal Effective Dose: B16, i.p. days 1, 5 and 9; for % T/C / Long Term Survivors: B16, i.p. days 1, 5 and 9, at maximal effective dose; for Long Term Survivors: 60 days
Description: The animals used were BDF1 mice, all of the same sex, weighing a minimum of 18 g. and all within a 4 g. weight range. There were 6 animals per test group. […] The test compounds were administered intraperitoneally on days 1, 5 and 9 at various doses. The animals were weighed and survivors were recorded on a regular basis for 60 days. The median survival time and the ratio of survival time for treated (T)/control (C) animals were calculated. […] The criterion for efficacy is T/C×100≥125%.

[10] = Example 18, L1210/0, 25 mg/kg, days 1,5,9
[11] = Example 18, L1210/0, 50 mg/kg, days 1,5,9
[12] = Table IX, single i.p., at maximal effective dose
[13] = Tables X and XI, days 1, 5 and 9, at maximal effective dose, alive 60 days after tumor inoculation
[14] = Tables X and XI, i.p. on days 1, 5 and 9, at maximal effective dose
[15] = L1210/0, protocol of Example 14, Tables VII and VIII

NC1CCCCC1N.O.O=C1OC(C(O)CO)C([O-])=C1O.O=C1OC(C(O)CO)C([O-])=C1O.[Pt+2] (stereo not drawn) [Compound 3, cis-bis-ascorbato(DACH)Pt(II).1H2 O]
ID50 [1]: 5.0 µg/mL | DEATHS/TREATED ([2]; 110 mg/kg): 1/6 | DEATHS/TREATED ([2]; 125 mg/kg): 2/6 | DEATHS/TREATED ([2]; 140 mg/kg): 4/6 | DEATHS/TREATED ([2]; 175 mg/kg): 6/6 | Calculated LD10 [2]: 108 mg/kg | Calculated LD50 [2]: 125 mg/kg | Calculated LD90 [2]: 150 mg/kg | % T/C ([3]; 6.25 mg/kg): 115% | % T/C ([3]; 12.5 mg/kg): 124% | % T/C ([3]; 25 mg/kg): 135% | % T/C ([3]; 50 mg/kg): 223% | SURVIVORS ([3]; 50 mg/kg): 3/10 | % T/C ([3]; 100 mg/kg): 172% | % T/C ([4]; single i.p., 50 mg/kg): 125% | % T/C ([4]; single i.p., 60 mg/kg): 163% | % T/C ([4]; single i.p., 75 mg/kg): 143% | % T/C ([4]; single i.p., 90 mg/kg): 145% | % T/C ([4]; single i.p., 100 mg/kg): Toxic | % T/C ([5]; 5 mg/kg, days 1-9): 142% | % T/C ([5]; 10 mg/kg, days 1,5,9): 123% | % T/C ([5]; 10 mg/kg, days 1-9): 184% | % T/C ([5]; 20 mg/kg, days 1,5,9): 196% | Long Term Survivors ([5]; 20 mg/kg, days 1,5,9): 1/6 | % T/C ([5]; 20 mg/kg, days 1-9): 239% | Long Term Survivors ([5]; 20 mg/kg, days 1-9): 1/6 | % T/C ([5]; 25 mg/kg, days 1,5,9): 176% | % T/C ([5]; 30 mg/kg, days 1,5,9): 257% | Long Term Survivors ([5]; 30 mg/kg, days 1,5,9): 1/6 | % T/C ([5]; 30 mg/kg, days 1,5,9,13): 273% | Long Term Survivors ([5]; 30 mg/kg, days 1,5,9,13): 1/6 | % T/C ([5]; Example 18, L1210/0, 6.25 mg/kg, days 1,5,9): 117% | % T/C ([5]; Example 18, L1210/0, 12.5 mg/kg, days 1,5,9): 135% | % T/C [5, 10]: 181% | SURVIVORS [5, 10]: 2/10 | % T/C [5, 11]: 247% | SURVIVORS [5, 11]: 1/10 | % T/C ([5]; Example 18, L1210/0, 100 mg/kg, days 1,5,9): 104% | ID50 L1210/DDP [6]: 5.0 µg/mL | ID50 L1210/PDD [6]: 2.6 µg/mL

O.O.O=C([O-])C[N-]CC(=O)O.[NH-]C1CCCCC1[NH-].[Pt] [Compound 11, iminodiacetato(DACH)Pt(II).2H2 O]
RUN [7]: 23 ± 4 mg/100 ml | ID50 [1]: 4.2 µg/mL | DEATHS/TREATED ([2]; 85 mg/kg): 1/6 | DEATHS/TREATED ([2]; 100 mg/kg): 3/6 | DEATHS/TREATED ([2]; 125 mg/kg): 5/6 | DEATHS/TREATED ([2]; 158 mg/kg): 4/6 | DEATHS/TREATED ([2]; 200 mg/kg): 6/6 | Calculated LD10 [2]: 80 mg/kg | Calculated LD50 [2]: 115 mg/kg | Calculated LD90 [2]: 155 mg/kg | Maximal Effective Dose ([4]; Table IX): 50 mg/kg | % T/C [4, 12]: 163% | % T/C ([4]; single i.p., 50 mg/kg): 163% | % T/C ([4]; single i.p., 100 mg/kg): 109% | toxicity remark ([4]; single i.p., 100 mg/kg): Apparent Toxicity | LD10 [8]: 53 mg/kg | LD50 [8]: 107 mg/kg | LD90 [8]: 169 mg/kg | % T/C ([5]; 25 mg/kg, days 1,5,9): 199% | % T/C ([5]; 50 mg/kg, days 1,5,9): 220% | Long Term Survivors ([5]; 50 mg/kg, days 1,5,9): 2/6 | Long Term Survivors [5, 13]: 2/6 | Maximal Effective Dose ([5]; Tables X and XI): 50 mg/kg | % T/C [5, 14]: 220% | ID50 L1210/PDD [6]: 1.6 µg/mL

CN(CC(=O)[O-])CC(=O)[O-].NC1CCCCC1N.O.[Pt+2] [Compound 28, N--Methyliminodiacetato(DACH)Pt(II).1H2 O]
RUN [7]: 22 ± 3 mg/100 ml | ID50 [1]: 1.6 µg/mL | Maximal Effective Dose [9]: 25 mg/kg | % T/C [9]: 205% | Long Term Survivors [9]: 0/6 | Maximal Effective Dose ([4]; Table IX): 25 mg/kg | % T/C [4, 12]: 180% | % T/C ([4]; single i.p., 12.5 mg/kg): 161% | % T/C ([4]; single i.p., 25 mg/kg): 185% | % T/C ([4]; single i.p., 50 mg/kg): Toxic | LD10 [8]: 49 mg/kg | LD50 [8]: 92 mg/kg | LD90 [8]: 170 mg/kg | Long Term Survivors [5, 13]: 5/6 | Maximal Effective Dose ([5]; Tables X and XI): 12.5 mg/kg | % T/C [5, 14]: 550% | ID50 L1210/DDP [6]: 1.3 µg/mL

NC1CCCCC1N.O.O.O=C([O-])CN(CC(=O)[O-])c1ccccc1.[Pt+2] [Compound 37, N--Phenyliminodiacetato(DACH)Pt(II).2H2 O]
RUN [7]: 18 ± 1 mg/100 ml | ID50 [1]: 1.0 µg/mL | ID50 L1210/0 [1, 15]: 2.3 µg/mL | Maximal Effective Dose [9]: 25 mg/kg | % T/C [9]: 215% | Long Term Survivors [9]: 0/6 | Maximal Effective Dose ([4]; Table IX): 12.5 mg/kg | % T/C [4, 12]: 172% | % T/C ([4]; single i.p., 12.5 mg/kg): 172% | % T/C ([4]; single i.p., 25 mg/kg): 156% | % T/C ([4]; single i.p., 50 mg/kg): 108% | LD10 [8]: 56 mg/kg | LD50 [8]: 81 mg/kg | LD90 [8]: 135 mg/kg | % T/C ([5]; 6.25 mg/kg i.p., days 1, 5, 9, 30 day observation period): 246% | LTS ([5]; 6.25 mg/kg, days 1, 5, 9): 3/6 | % T/C ([5]; 12.5 mg/kg i.p., days 1, 5, 9, 30 day observation period): 298% | LTS ([5]; 12.5 mg/kg, days 1, 5, 9): 5/6 | % T/C ([5]; 25 mg/kg i.p., days 1, 5, 9, 30 day observation period): 242% | LTS ([5]; 25 mg/kg, days 1, 5, 9): 1/6 | Long Term Survivors [5, 13]: 4/6 | Maximal Effective Dose ([5]; Tables X and XI): 12.5 mg/kg | % T/C [5, 14]: 537% | ID50 L1210/DDP [6]: 2.6 µg/mL

N.N.[Cl][Pt][Cl] [DDP, diamminedichloroplatinum II, reference compound]
ID50 L1210/0 ([1]; L1210/0, Example 15 table): 0.1 µg/mL | Maximal Effective Dose [9]: 5 mg/kg | % T/C [9]: 172% | Long Term Survivors [9]: 1/6 | Maximal Effective Dose ([4]; Table IX): 9 mg/kg | % T/C [4, 12]: 150% | Long Term Survivors [5, 13]: 1/6 | Maximal Effective Dose ([5]; Tables X and XI): 5 mg/kg | % T/C [5, 14]: 210% and 220% | ID50 L1210/PDD [6]: 5.5 µg/mL

mono-N--phenyliminodiacetato [Identifier No. 14a]
ID50 L1210/0 [1, 15]: 0.7 µg/mL | Maximal Effective Dose [9]: 25 mg/kg | % T/C [9]: 160% | Long Term Survivors [9]: 3/6 | Long Term Survivors [5, 13]: 4/6 | Maximal Effective Dose ([5]; Tables X and XI): 6.25 mg/kg | % T/C [5, 14]: 578% | ID50 L1210/DDP [6]: 0.6 µg/mL
